Laboratory results as given in patent US10118925B2, “Imidazo[4,5-c] ring compounds containing substituted guanidine groups” (3M INNOVATIVE PROPERTIES COMPANY, priority 2015, dated 2018).
Structures can show the parent of a compound that is named as a salt.

Columns and labels:
[1] = test system: Human peripheral blood mononuclear cells (PBMC); assay: Cytokine induction in human cells (PBMC): IP-10 by multiplex bead assay; type: cell-based; details: 21-24 hrs, lowest concentration inducing cytokine at least 2× negative control, tested 0.0001-10 micromolar
Description: (§1) Whole blood was obtained from healthy human donors and collected by venipuncture into vacutainer tubes or syringes containing EDTA. Human peripheral blood mononuclear cells (PBMC) were purified from the whole blood by density gradient centrifugation. Histopaque 1077 (15 mL, Sigma, St. Louis, Mo.) was transferred to 6×50 mL sterile polypropylene conical tubes. The Histopaque was overlayed with 15-25 mL of blood diluted 1:2 in Hank's Balanced Salts Solution (HBSS) (Gibco, Life Technology, Grand Island N.Y.). The tubes were then centrifuged at 1370 rpm for 30 minutes at 20° C., with no brake (400×g, GH 3.8 A Rotor).
(§2) The interface (buffy coat) containing the PBMC was collected and placed in a new sterile 50 mL conical polypropylene centrifuge tube. The PBMC were mixed with an equal volume of HBSS (about 20 mL from the interface and about 20 mL of HBSS), and then centrifuged at 1090 rpm, 10 min, 20° C., with brake (270×g, GH 3.8 A Rotor). After completing centrifugation, the cells were resuspended in 2-3 mL ACK Red blood cell lysis buffer (ammonium chloride potassium solution, Gibco, Life Technology) and incubated for 2-5 minutes at 20° C. […]
(§3) The number of viable cells were determined by counting with a Miltenyi FACS instrument (Miltenyi Biotec Inc., San Diego, Calif.) or by using a hemacytometer. […] Ten microliters of the diluted cells were then applied to the hemacytometer, and the number of viable PBMC were determined by microscopy. […]
(§4) IFN-alpha cytokine levels (pg/mL) were measured by ELISA (human IFN-α, pan specific, Mabtech, Cinncinnati, Ohio), IFN-gamma, TNF-alpha, and IP-10 cytokine levels (pg/mL) were measured by multiplex bead assay (magnetic beads, R & D Systems Minneapolis, Minn.) according to the manufacturer's instructions.
(§5) Specifically, the minimum effective concentration of each compound (micromolar) was determined as the lowest concentration of the compound that induced a measured cytokine response at a level ([…]) that was at least 2× greater than that observed with the negative control wells.

[2] = test system: Human peripheral blood mononuclear cells (PBMC); assay: Cytokine induction in human cells (PBMC): IFN-alpha by ELISA; type: cell-based; details: 21-24 hrs, lowest concentration inducing cytokine at least 2× negative control, tested 0.0001-10 micromolar
Description: as §1, §2, §3, §4, §5

[3] = test system: Human peripheral blood mononuclear cells (PBMC); assay: Cytokine induction in human cells (PBMC): TNF-alpha by multiplex bead assay; type: cell-based; details: 21-24 hrs, lowest concentration inducing cytokine at least 2× negative control, tested 0.0001-10 micromolar
Description: as §1, §2, §3, §4, §5

[4] = test system: Human peripheral blood mononuclear cells (PBMC); assay: Cytokine induction in human cells (PBMC): IFN-gamma by multiplex bead assay; type: cell-based; details: 21-24 hrs, lowest concentration inducing cytokine at least 2× negative control, tested 0.0001-10 micromolar
Description: as §1, §2, §3, §4, §5

| Compound | melting point [°C] | MEC to Induce Cytokine IP-10 [1] [µM] | MEC to Induce Cytokine IFN-alpha [2] [µM] | MEC to Induce Cytokine TNF-alpha [3] [µM] | MEC to Induce Cytokine IFN-gamma [4] [µM] |
| --- | --- | --- | --- | --- | --- |
| CCCCc1nc2c(N)nc3ccccc3c2n1CCCCN/C(=N/C(C)C)NC(C)C (as salt: hydrochloride) [Example 2, 1-[4-(4-amino-2-butyl-imidazo[4,5-c]quinolin-1-yl)butyl]-2,3-diisopropyl-guanidine Dihydrochloride] | 172 to 174 | – | – | – | – |
| CC(C)Cn1cnc2c(N)nc3ccccc3c21 [imiquimod, reference compound] | – | 10 | 10 | 10 | 10 |
| CCCCc1nc2c(N)nc3ccccc3c2n1CCCCN/C(=N/C(C)C)NC(C)C [Example 2, 1-[4-(4-amino-2-butyl-imidazo[4,5-c]quinolin-1-yl)butyl]-2,3-diisopropyl-guanidine Dihydrochloride] | – | 0.1 | 0.1 | 10 | 1 |
| CCCCc1nc2c(N)nc3ccccc3c2n1CCCCNC(=N)NC(C)C (as salt: hydrochloride) [Example 1, 1-[4-(4-amino-2-butyl-imidazo[4,5-c]quinolin-1-yl)butyl]-3-isopropyl-guanidine dihydrochloride] | 210 to 216 | – | – | – | – |
| CCCCc1nc2c(N)nc3ccccc3c2n1CCCCNC(=N)NC(C)C [Example 1, 1-[4-(4-amino-2-butyl-imidazo[4,5-c]quinolin-1-yl)butyl]-3-isopropyl-guanidine dihydrochloride] | – | 0.001 | 0.01 | 0.1 | 0.1 |
